Experimental findings from patent publication US20060233883A1, “Intravenous nanoparticles for targeting drug delivery and sustained drug release” (priority 2003, published 2006) are described below.

The test system of data set [1] is inflammatory sites. In words: Accumulation of nanoparticles in inflammatory sites (carrageenin leg edema, fluorescence microscopy). It counts as in vivo, male Lewis rats. The conditions noted are these: single tail vein injection 4 hours after carrageenin; 2 hours after administration. Here is the method: Inflammation was induced by injecting 100 μl physiological saline containing 1% carrageenin in the left hind paw of male Lewis rats. After 4 hours, single dosages of rhodamine-encapsulating nanoparticles of two different sizes (200 nm and 500 nm) were injected into a tail vein. 2 hours after administration, the resultant leg edema was cut and cryostat sections were prepared.
As controls, one group was administered with physiological saline and another group with rhodamine alone.

Data set [2] in a line: Encapsulation of steroids into PLGA nanoparticles (steroid content by HPLC). Format: physicochemical. The conditions noted are these: for Steroid/nanoparticle (wt %): PLGA nanoparticles. Here is the method:
Each mixture was centrifuged at 12,000 rpm for 5 min and the supernatant was discarded to obtain precipitates in the form of zinc-steroids or iron-steroids. […] To each of the resultant solutions, an aqueous solution of zinc acetate was added and the mixture was allowed to stand for 2 hours at room temperature. […] The mixture was then centrifuged at 20,000 G for 20 min. Following the removal of the supernatant, the residue was resuspended in water and the suspension was again centrifuged to wash the nanoparticles. […] Similarly, the amount of water-insoluble steroid was determined for the nanoparticles prepared by different method without metal ions.

Data set [3] in a line: Formation of water-insoluble precipitates of drugs with metal ions (turbidity observed). Format: physicochemical. The conditions noted are these: 20 mM drug in 0.2M Tris-HCl pH 7.8 + equal volume 100 mM metal ion. The procedure:
Compounds shown in Table 1 below were used to as the low-molecular weight, water-soluble and non-peptide drug having phosphate groups. […] The solution was then added to equal volume of 100 mM aqueous solutions of different metal ions. The turbidity of each of the resulting mixtures was observed.

Assay in data set [4]: as above
The conditions noted are these: for Formation of precipitates with metal ions: 3N HCl, 20 mM drug in 0.2M Tris-HCl pH 7.8. Format: physicochemical.

Take rhodamine: in data set [1], the “accumulation of the nanoparticles in the inflammatory sites (fluorescence in tissue sections)” value is “No significant accumulation”.

Regarding hydrocortisone phosphate [HP-Zn], the “Steroid/nanoparticle (wt %)” value in data set [2] worked out at 1.05 wt %.

For `C[C@@H]1C[C@H]2[C@@H]3CCC4=CC(=O)C=C[C@]4(C)[C@@]3(F)[C@@H](O)C[C@]2(C)[C@@]1(O)C(=O)COP(=O)(O)O` [DP-Na, dexamethasone phosphate], the “Steroid/nanoparticle (wt %)” value in data set [2] was determined as 0 wt %.

For `C[C@H]1C[C@H]2[C@@H]3CCC4=CC(=O)C=C[C@]4(C)[C@@]3(F)[C@@H](O)C[C@]2(C)[C@@]1(O)C(=O)COP(=O)(O)O` [BP-Fe, betamethasone phosphate], the “Steroid/nanoparticle (wt %)” value in data set [2] is given as 1.15 wt %.

For `C[C@H]1C[C@H]2[C@@H]3CCC4=CC(=O)C=C[C@]4(C)[C@@]3(F)[C@@H](O)C[C@]2(C)[C@@]1(O)C(=O)COP(=O)(O)O` [betamethasone phosphate], the “Formation of precipitates with metal ions” value (shortened to “Formation of precipitates”) is reported as “+++” in data set [3] (CuCl2); “+++” in data set [3] (FeCl2); “+++” in data set [3] (FeCl3); “−” in data set [3] (MgCl2); “−” in data set [3] (NiCl2); “+++” in data set [3] (Zn(CH3COO)2). In addition, the “Formation of precipitates” value is on record as “+++” in data set [3] (ZnCl2) and “−” in data set [4]. Further, the “dispersion state of the nanoparticles” value is “formed aggregates” in data set [2] (500 μl or less of acetone) and “remained stably dispersed” in data set [2] (700 μl acetone). Further, the “Steroid/nanoparticle (wt %)” value was found to be 7.34 wt % in data set [2] (zinc precipitate of 5 mg, acetone 700 μl); 4.28 wt % in data set [2] (zinc precipitate of 5 mg, acetone 900 μl); 3.46 wt % in data set [2] (zinc precipitate of 5 mg, acetone 1100 μl); 2.71 wt % in data set [2] (zinc precipitate of 5 mg, acetone 1300 μl); 1.93 wt % in data set [2] (zinc precipitate of 5 mg, acetone 1500 μl).

`C[C@@H]1C[C@H]2[C@@H]3CCC4=CC(=O)C=C[C@]4(C)[C@@]3(F)[C@@H](O)C[C@]2(C)[C@@]1(O)C(=O)COP(=O)(O)O` [DP-Zn, dexamethasone phosphate]: in data set [2], the “Steroid/nanoparticle (wt %)” value was 1.15 wt %.

For the compound hydrocortisone phosphate [HP-Na], the “Steroid/nanoparticle (wt %)” value in data set [2] stood at 0 wt %.

Take Naphthyl-phosphate: the “Formation of precipitates” value is given as “−” in data set [3] (CuCl2); “+++” in data set [3] (FeCl2); “+++” in data set [3] (FeCl3); “−” in data set [3] (MgCl2); “−” in data set [3] (NiCl2); “+++” in data set [3] (Zn(CH3COO)2). The “Formation of precipitates” value is “+++” in data set [3] (ZnCl2) and “−” in data set [4].

With `CC(=O)OCC(=O)[C@@]1(O)[C@@H](C)C[C@H]2[C@@H]3CCC4=CC(=O)C=C[C@]4(C)[C@@]3(F)[C@@H](O)C[C@@]21C` [betamethasone acetate], in data set [2], the “Steroid/nanoparticle (wt %)” value is on record as 0.15 wt %.

For the compound `C[C@@H]1C[C@H]2[C@@H]3CCC4=CC(=O)C=C[C@]4(C)[C@@]3(F)[C@@H](O)C[C@]2(C)[C@@]1(O)C(=O)COP(=O)(O)O` [Dexamethasone phosphate, dexamethasone phosphate], the “Formation of precipitates” value in data set [3] (CuCl2) is given as “+++”; in data set [3] (FeCl2) it was “+++”; in data set [3] (FeCl3), “+++”; in data set [3] (MgCl2), “−”; in data set [3] (NiCl2), “+”; in data set [3] (Zn(CH3COO)2), “+++”. In addition, the entries for the “Formation of precipitates” value in data set [3] (ZnCl2) and in data set [4] were “+++” and “−”, respectively.

Turning to `Cc1cc2nc3c(=O)[nH]c(=O)nc-3n(C[C@H](O)[C@H](O)[C@H](O)COP(=O)(O)O)c2cc1C` [riboflavin phosphate], the “Formation of precipitates” value in data set [3] (CuCl2) was “+++”; in data set [3] (FeCl2) it was “+++”; in data set [3] (FeCl3), “+++”; in data set [3] (MgCl2), “−”; in data set [3] (NiCl2), “−”; in data set [3] (Zn(CH3COO)2) it was “+++”. In addition, the “Formation of precipitates” value in data set [3] (ZnCl2) is reported as “+++”; in data set [4], “−”. Moreover, the “molar ratio with respect to zinc ion at which precipitate formation was most significant” value in data set [4] (zinc ion, molar ratio varied) is “approximately 1”.

Consider `CCC(=O)OCC(=O)[C@@]1(OC(=O)CC)[C@@H](C)C[C@H]2[C@@H]3CCC4=CC(=O)C=C[C@]4(C)[C@@]3(F)[C@@H](O)C[C@@]21C` [BDP, betamethasone dipropionate], for which, in data set [2], the “Steroid/nanoparticle (wt %)” value is 0.47 wt %.

Regarding `C[C@H]1C[C@H]2[C@@H]3CCC4=CC(=O)C=C[C@]4(C)[C@@]3(F)[C@@H](O)C[C@]2(C)[C@@]1(O)C(=O)COP(=O)(O)O` [BP-Na, betamethasone phosphate], the “Steroid/nanoparticle (wt %)” value in data set [2] is 0 wt %.

`C[C@H]1C[C@H]2[C@@H]3CCC4=CC(=O)C=C[C@]4(C)[C@@]3(F)[C@@H](O)C[C@]2(C)[C@@]1(O)C(=O)COP(=O)(O)O` [BP-Zn, betamethasone phosphate]: the “Steroid/nanoparticle (wt %)” value in data set [2] amounted to 2.03 wt %.
